Data reported in publication PMC9865890, “N-Derivatives of (Z)-Methyl 3-(4-Oxo-2-thioxothiazolidin-5-ylidene)methyl)-1H-indole-2-carboxylates as Antimicrobial Agents—In Silico and In Vitro Evaluation” (Pharmaceuticals, 2023).
In brackets after ≈: the same amount, converted by molar mass. Read-outs that look alike come from different tables or passages of the source.

What was measured:
[1] = test system: Staphylococcus aureus (ATCC 6538); assay: Antibacterial microdilution (MIC/MBC); assay type: cell-based; details: S.a. (S. aureus)
In short: (§1)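 MIC and MBC values came from a modified broth microdilution method, with ampicillin and streptomycin run alongside as reference drugs.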

[2] = test system: Salmonella typhimurium (ATCC 13311); assay: Antibacterial microdilution (MIC/MBC); assay type: cell-based; details: Salmonella enterica, S.t. (S. typhimurium); for MIC: read-out: MIC
In short: as §1

[3] = test system: Escherichia coli (ATCC 35210); assay: Antibacterial microdilution (MIC/MBC); assay type: cell-based; details: Escherichia coli, ATCC35210, E. coli; for MIC: read-out: MIC
In short: as §1

[4] = test system: P. aeruginosa; assay: Antibacterial microdilution (MIC/MBC); assay type: cell-based; details: Pseudomonas aeruginosa, P.a. (P. aeruginosa); for MIC: read-out: MIC
In short: as §1

[5] = test system: Enterobacter cloacae (clinical isolate); assay: Antibacterial microdilution (MIC/MBC); assay type: cell-based; details: Enterobacter cloacae, En.cl (En. cloacae); for MIC: read-out: MIC
In short: as §1

[6] = test system: Listeria monocytogenes (NCTC 7973); assay: Antibacterial microdilution (MIC/MBC); assay type: cell-based; details: Listeria monocytogenes, NCTC7973, L.m. (L. monocytogenes); for MIC: read-out: MIC
In short: as §1

[7] = test system: Bacillus cereus (clinical isolate); assay: Antibacterial microdilution (MIC/MBC); assay type: cell-based; details: Bacillus cereus, B.c. (B. cereus); for MIC: read-out: MIC
In short: as §1

[8] = test system: M. flavus; assay: Antibacterial microdilution (MIC/MBC); assay type: cell-based; details: Micrococcus flavus; M.f. (M. flavus)
In short: as §1

[9] = test system: Penicillium verrucosum var. cyclopium (food isolate); assay: Antifungal bioassay (MIC/MFC); assay type: cell-based
[10] = test system: Aspergillus niger (ATCC 6275); assay: Antifungal bioassay (MIC/MFC); assay type: cell-based; details: ATCC6275, A.n. (A. niger)
In short: (§2)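 Experiments were run twice for every fungus in the panel.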

[11] = test system: Penicillium funiculosum (ATCC 36839); assay: Antifungal bioassay (MIC/MFC); assay type: cell-based; details: Talaromyces funiculosus, ATCC36839; P.f. (P. funiculosum)
In short: as §2

[12] = test system: P. ochrochloron; assay: Antifungal bioassay (MIC/MFC); assay type: cell-based; details: Penicillium ochrochloron; for MFC: P.o. (P. ochrochloron); for MIC: P.o. (P. ochrochloron; text: P. ochramensis), read-out: MIC
In short: as §2

[13] = test system: Aspergillus fumigatus (ATCC 1022); assay: Antifungal bioassay (MIC/MFC); assay type: cell-based; details: ATCC1022, A.f. (A. fumigatus)
In short: as §2

[14] = test system: Aspergillus versicolor (ATCC 11730); assay: Antifungal bioassay (MIC/MFC); assay type: cell-based; details: ATCC11730, A.v. (A. versicolor)
In short: as §2

[15] = test system: Trichoderma viride (IAM 5061); assay: Antifungal bioassay (MIC/MFC); assay type: cell-based; details: T.v. (T. viride)
In short: as §2

[16] = test system: A. ochraceus; assay: Antifungal bioassay (MIC/MFC); assay type: cell-based; details: A.o. (A. ochraceus)
In short: as §2

[17] = Staphylococcus aureus, ATCC6538
[18] = Staphylococcus aureus, ATCC6538, read-out: MIC
[19] = Trichoderma viride, IAM5061, read-out: MIC
[20] = Aspergillus ochraceus, read-out: MIC

| Structure (SMILES) | MBC [1, 17] [µg/mL] | MIC [1, 18] [µg/mL] | MBC [2] [µg/mL] | MIC [2] [µg/mL] | MBC [3] [µg/mL] | MIC [3] [µg/mL] | MBC [4] [µg/mL] | MIC [4] [µg/mL] | MBC [5] [µg/mL] | MIC [5] [µg/mL] | MBC [6] [µg/mL] | MIC [6] [µg/mL] | MBC [7] [µg/mL] | MIC [7] [µg/mL] | MBC [8] [µg/mL] | MIC [8] [µg/mL] | melting point [°C] | MFC [9] [µg/mL] | MIC [9] [µg/mL] | MFC [10] [µg/mL] | further results |
| --- | --- | --- | --- | --- | --- | --- | --- | --- | --- | --- | --- | --- | --- | --- | --- | --- | --- | --- | --- | --- | --- |
| COC(=O)c1[nH]c2ccccc2c1/C=C1\SC(=S)N(CCCN2CCOCC2)C1=O [Compound 5, (Z)-methyl 3-((3-(3-morpholinopropyl)-4-oxo-2-thioxothiazolidin-5-ylidene)methyl)-1H-indole-2-carboxylate] | 30 ± 10 (≈ 67.3 µM) | 15 (≈ 33.7 µM) | 30 ± 10 (≈ 67.3 µM) | 22 ± 5 (≈ 49.4 µM) | 60 ± 6 (≈ 135 µM) | 30 ± 10 (≈ 67.3 µM) | 60 ± 6 (≈ 135 µM) | 30 ± 10 (≈ 67.3 µM) | 30 ± 10 (≈ 67.3 µM) | 15 ± 9 (≈ 33.7 µM) | 60 ± 6 (≈ 135 µM) | 30 ± 10 (≈ 67.3 µM) | 60 ± 6 (≈ 135 µM) | 30 ± 10 (≈ 67.3 µM) | 60 ± 6 (≈ 135 µM) | 45 ± 3 (≈ 101 µM) | 213 to 214 | 30 ± 10 (≈ 67.3 µM) | 15 ± 3 (≈ 33.7 µM) | 30 ± 10 (≈ 67.3 µM) | MIC [1]: 15 ± 9 µg/mL (≈ 33.7 µM); MIC [10]: 15 ± 3 µg/mL (≈ 33.7 µM); MFC [11]: 30 ± 10 µg/mL (≈ 67.3 µM); MIC [11]: 15 ± 3 µg/mL (≈ 33.7 µM); MFC [12]: 15 ± 3 µg/mL (≈ 33.7 µM); MIC [12]: 110 ± 10 µg/mL (≈ 247 µM); MFC [13]: 120 ± 40 µg/mL (≈ 269 µM); MIC [13]: 60 ± 6 µg/mL (≈ 135 µM); MFC [14]: 15 ± 3 µg/mL (≈ 33.7 µM); MIC [14]: 8 ± 0.6 µg/mL (≈ 18 µM); MIC [15]: 4 ± 1 µg/mL (≈ 8.98 µM); MFC ([15]; Trichoderma viride, IAM5061): 8 ± 0.6 µg/mL (≈ 18 µM); MIC [15, 19]: 4 µg/mL (≈ 8.98 µM); MFC ([16]; Aspergillus ochraceus): 15 ± 3 µg/mL (≈ 33.7 µM); MIC [16, 20]: 8 ± 0.6 µg/mL (≈ 18 µM) |
| COC(=O)c1[nH]c2ccc(F)cc2c1/C=C1\SC(=S)N(CCCC(=O)O)C1=O [Compound 9, (Z)-4-(5-((5-fluoro-2-(methoxycarbonyl)-1H-indol-3-yl)methylene)-4-oxo-2-thioxothiazolidin-3-yl)butanoic acid] | 60 ± 6 (≈ 142 µM) | 30 ± 10 (≈ 71 µM) | 60 ± 6 (≈ 142 µM) | 30 ± 10 (≈ 71 µM) | 60 ± 6 (≈ 142 µM) | 30 ± 10 (≈ 71 µM) | 60 ± 6 (≈ 142 µM) | 30 ± 10 (≈ 71 µM) | 60 ± 6 (≈ 142 µM) | 30 ± 10 (≈ 71 µM) | 60 ± 6 (≈ 142 µM) | 30 ± 10 (≈ 71 µM) | 60 ± 6 (≈ 142 µM) | 30 ± 10 (≈ 71 µM) | 60 ± 6 (≈ 142 µM) | 30 ± 10 (≈ 71 µM) | 192 to 193 | 15 ± 3 (≈ 35.5 µM) | 22 ± 5 (≈ 52.1 µM) | 30 ± 10 (≈ 71 µM) | MIC [10]: 15 ± 3 µg/mL (≈ 35.5 µM); MFC [11]: 30 ± 10 µg/mL (≈ 71 µM); MIC [11]: 15 ± 3 µg/mL (≈ 35.5 µM); MFC [12]: 30 ± 10 µg/mL (≈ 71 µM); MIC [12]: 15 ± 3 µg/mL (≈ 35.5 µM); MFC [13]: 120 ± 40 µg/mL (≈ 284 µM); MIC [13]: 90 ± 3 µg/mL (≈ 213 µM); MFC [14]: 30 ± 10 µg/mL (≈ 71 µM); MIC [14]: 15 ± 3 µg/mL (≈ 35.5 µM); MIC [15]: 8 ± 0.6 µg/mL (≈ 18.9 µM); MFC ([15]; Trichoderma viride, IAM5061): 15 ± 3 µg/mL (≈ 35.5 µM); MIC [15, 19]: 8 µg/mL (≈ 18.9 µM); MIC [16]: 4 ± 1 µg/mL (≈ 9.47 µM); MFC ([16]; Aspergillus ochraceus): 8 ± 0.6 µg/mL (≈ 18.9 µM); MIC [16, 20]: 4 µg/mL (≈ 9.47 µM) |
